According to patent US11066668B2, “Compositions and methods for modulation of IKBKAP splicing” (Ionis Pharmaceuticals, Inc., priority 2012, dated 2021):
Oligonucleotides are written 5' to 3', each unit as a sugar letter and its base; * is a phosphorothioate linkage, no mark a phosphodiester; rarer units and linkages stand in square brackets, end groups in braces. Plain capitals give the bases only. e = 2'-O-(2-methoxyethyl) (MOE); [5mC] = 5-methylcytosine

System: IKBKAP pre-mRNA (mt19-21 minigene)
Test: Exon 20 inclusion in HEK-293 cells harboring the mt19-21 IKBKAP minigene (RT-PCR)
Type: cell-based, human
Conditions: HEK-293 with mt19-21 minigene; for % inclusion (exon 20): 0.007 nmol oligonucleotide by electroporation, RT-PCR two days later; for effect on exon 20 inclusion/skipping, in words: 0.007 nmol oligonucleotide
Protocol: Antisense oligonucleotides were designed targeting a human IKBKAP nucleic acid and were tested for their effects on IKBKAP pre-mRNA in vitro. Together, the overlapping antisense oligonucleotides spanned the entire 74-nucleotide region of the IKBKAP exon 20 sequence, as well as the 100-nucleotide intronic regions immediately upstream and downstream of exon 20. The antisense oligonucleotides are presented in Table 1, and were designed as uniform 2′-O-methoxyethyl ribose (MOE) oligonucleotides with phosphate backbones. Each oligonucleotide is 15 nucleosides in length. All cytosine residues throughout the oligonucleotide are 5-methylcytosines. ‘Start Site’ indicates the 5′-most nucleoside to which the oligonucleotide is targeted in the human gene sequence. “Stop site” indicates the 3′-most nucleoside to which the oligonucleotide is targeted in the human gene sequence. Each oligonucleotide listed in Table 1 is targeted to the human IKBKAP genomic sequence (the complement of GENBANK Accession No NT_008470.16 truncated from nucleotides 13290828 to Ser. No. 13/358,424, designated herein as SEQ ID NO: 1). ISIS 414161 has one mismatch with SEQ ID NO: 1.
Cultured HEK-293 cells harboring the mt19-21 minigene vector construct at a density of 7×10^5 cells per well were transfected using electroporation (Gene Pulsar II apparatus, Bio-Rad) with 0.007 nmol antisense oligonucleotide, as previously described (Hua, Y., et al., 2007. PLoS Biol 5:e73). […] These oligonucleotides served as controls for non-specific effects of uniform MOE oligonucleotides with phosphate backbones. Cells harboring the wt19-21 minigene and the mt19-21 minigene alone were also cultured and were used as controls for exon 20 inclusion levels. Two days later, cDNA synthesized from total RNA extracted from HEK-293 cells was amplified using the forward primer pCDNAF and reverse primer sequence IKAP21R4 to assay the splicing pattern of expressed RNAs by RT-PCR. To calculate exon 20 inclusion levels, the PCR amplicons were labeled with α^32P-dCTP. The PCR products were then separated by native PAGE, followed by phosphorimage analysis on a FUJIFILM FLA-5100 instrument (Fuji Medical Systems USA Inc.). The band intensities were quantified using Multi Gauge software Version 2.3 (FUJIFILM), and values were normalized for the G+C content according to the DNA sequence.
Treatment with antisense oligonucleotides targeting the 3′ and 5′ splice sites caused increased skipping of exon 20.
Additional oligonucleotides were designed targeting the first 30-nucleotide stretch of ISS-40. These oligonucleotides were designed by choosing sequences shifted in one nucleotide increments upstream and downstream (i.e., a “microwalk”) of ISS-40, starting from the +6 position in exon 20. The antisense oligonucleotides are presented in Table 2 and FIG. 4D, and were designed as uniform 2′-O-methoxyethyl ribose (MOE) oligonucleotides with phosphate backbones. Each oligonucleotide is 20 nucleosides in length. All cytosine residues throughout the oligonucleotide are 5-methylcytosines. ‘Start Site’ indicates the 5′-most nucleoside to which the oligonucleotide is targeted in the human gene sequence. “Stop site” indicates the 3′-most nucleoside to which the oligonucleotide is targeted in the human gene sequence. Each oligonucleotide listed in Table 2 is targeted to intron 20 of the human IKBKAP genomic sequence (the complement of GENBANK Accession No NT_008470.16 truncated from nucleotides 13290828 to Ser. No. 13/358,424, designated herein as SEQ ID NO: 1). These oligonucleotides were tested in vitro.
Cultured HEK-293 cells harboring the mt19-21 minigene vector construct at a density of 7×10^5 cells per well were transfected using electroporation (Gene Pulsar II apparatus, Bio-Rad) with 0.007 nmol antisense oligonucleotide, as previously described (Hua, Y., et al., 2007. PLoS Biol 5:e73). […]

| Substance | % inclusion (exon 20) (Table 2 (microwalk experiment)) [%] | % inclusion (exon 20) (Table 1) [%] | effect on exon 20 inclusion/skipping, in words |
| --- | --- | --- | --- |
| ISIS 421996: uniform 2′-MOE 20-mer, phosphate backbone; ACTAGTCGCAAACAGTACAA, SEQ ID NO 65, intron 20 (eAe[5mC]eTeAeGeTe[5mC]eGe[5mC]eAeAeAe[5mC]eAeGeTeAe[5mC]eAeA; splice-switching) | 89 | – | – |
| ISIS 414131: uniform 2′-MOE 15-mer, phosphate backbone; AACTCTTCACAGAGA, SEQ ID NO 10, intron 19 (eAeAe[5mC]eTe[5mC]eTeTe[5mC]eAe[5mC]eAeGeAeGeA; splice-switching) | – | 30 | – |
| ISIS 414160: uniform 2′-MOE 15-mer, phosphate backbone; TACAATGGCGCTTAC, SEQ ID NO 39, intron 20 (eTeAe[5mC]eAeAeTeGeGe[5mC]eGe[5mC]eTeTeAe[5mC]; splice-switching) | – | 14 | – |
| ISIS 414174: uniform 2′-MOE 15-mer, phosphate backbone; AGTTCTCGAAATTGT, SEQ ID NO 53, intron 20 (eAeGeTeTe[5mC]eTe[5mC]eGeAeAeAeTeTeGeT; splice-switching) | – | 29 | – |
| ISIS 414146: uniform 2′-MOE 15-mer, phosphate backbone; CTTAAATAAATTAAA, SEQ ID NO 25, intron 19 (e[5mC]eTeTeAeAeAeTeAeAeAeTeTeAeAeA; splice-switching) | – | 26 | – |
| ISIS 414147: uniform 2′-MOE 15-mer, phosphate backbone; GTTTCCCCTTGGCAT, SEQ ID NO 26, exon 20 (eGeTeTeTe[5mC]e[5mC]e[5mC]e[5mC]eTeTeGeGe[5mC]eAeT; splice-switching) | – | 3 | – |
| ISIS 414169: uniform 2′-MOE 15-mer, phosphate backbone; TTATTGTCTTCACAC, SEQ ID NO 48, intron 20 (eTeTeAeTeTeGeTe[5mC]eTeTe[5mC]eAe[5mC]eAe[5mC]; splice-switching) | – | 21 | – |
| ISIS 414162: uniform 2′-MOE 15-mer, phosphate backbone; TCGCAAACAGTACAA, SEQ ID NO 41, intron 20 (eTe[5mC]eGe[5mC]eAeAeAe[5mC]eAeGeTeAe[5mC]eAeA; splice-switching) | 82 | 79 | markedly increased inclusion of exon 20 |
| ISIS 421994: uniform 2′-MOE 20-mer, phosphate backbone; TAGTCGCAAACAGTACAATG, SEQ ID NO 63, intron 20 (eTeAeGeTe[5mC]eGe[5mC]eAeAeAe[5mC]eAeGeTeAe[5mC]eAeAeTeG; splice-switching) | 91 | – | – |
| ISIS 422000: uniform 2′-MOE 20-mer, phosphate backbone; GCTAACTAGTCGCAAACAGT, SEQ ID NO 69, intron 20 (eGe[5mC]eTeAeAe[5mC]eTeAeGeTe[5mC]eGe[5mC]eAeAeAe[5mC]eAeGeT; splice-switching) | 63 | – | – |
| ISIS 414166: uniform 2′-MOE 15-mer, phosphate backbone; ATAAATCACAAGCTA, SEQ ID NO 45, intron 20 (eAeTeAeAeAeTe[5mC]eAe[5mC]eAeAeGe[5mC]eTeA; splice-switching) | 38 | 40 | markedly increased inclusion of exon 20 |
| ISIS 414133: uniform 2′-MOE 15-mer, phosphate backbone; CATTTTACCTAACTC, SEQ ID NO 12, intron 19 (e[5mC]eAeTeTeTeTeAe[5mC]e[5mC]eTeAeAe[5mC]eTe[5mC]; splice-switching) | – | 25 | – |
| ISIS 414140: uniform 2′-MOE 15-mer, phosphate backbone; ATTAAGTAGAAAACA, SEQ ID NO 19, intron 19 (eAeTeTeAeAeGeTeAeGeAeAeAeAe[5mC]eA; splice-switching) | – | 13 | – |
| ISIS 414151: uniform 2′-MOE 15-mer, phosphate backbone; CGATGATGAACAACT, SEQ ID NO 30, exon 20 (e[5mC]eGeAeTeGeAeTeGeAeAe[5mC]eAeAe[5mC]eT; splice-switching) | – | 0 | – |
| ISIS 414158: uniform 2′-MOE 15-mer, phosphate backbone; CCAACCACTTCCGAA, SEQ ID NO 37, exon 20 (e[5mC]e[5mC]eAeAe[5mC]e[5mC]eAe[5mC]eTeTe[5mC]e[5mC]eGeAeA; splice-switching) | – | 1 | – |
| ISIS 414153: uniform 2′-MOE 15-mer, phosphate backbone; AACCAGGGCTCGATG, SEQ ID NO 32, exon 20 (antisense eAeAe[5mC]e[5mC]eAeGeGeGe[5mC]eTe[5mC]eGeAeTeG) | – | 5 | – |
| ISIS 414156: uniform 2′-MOE 15-mer, phosphate backbone; CCGAATCTGAGCTAA, SEQ ID NO 35, exon 20 (e[5mC]e[5mC]eGeAeAeTe[5mC]eTeGeAeGe[5mC]eTeAeA; splice-switching) | – | 5 | – |
| ISIS 414175: uniform 2′-MOE 15-mer, phosphate backbone; TTTTAAGTTCTCGAA, SEQ ID NO 54, intron 20 (eTeTeTeTeAeAeGeTeTe[5mC]eTe[5mC]eGeAeA; splice-switching) | – | 27 | – |
| ISIS 414161: uniform 2′-MOE 15-mer, phosphate backbone; AACAGTACAATGGCG, SEQ ID NO 40, intron 20; one mismatch with SEQ ID NO 1 (eAeAe[5mC]eAeGeTeAe[5mC]eAeAeTeGeGe[5mC]eG) | 79 | 88 | markedly increased inclusion of exon 20 |
| ISIS 414142: uniform 2′-MOE 15-mer, phosphate backbone; AACATTTTTAATTAA, SEQ ID NO 21, intron 19 (eAeAe[5mC]eAeTeTeTeTeTeAeAeTeTeAeA; splice-switching) | – | 23 | – |
| ISIS 421998: uniform 2′-MOE 20-mer, phosphate backbone; TAACTAGTCGCAAACAGTAC, SEQ ID NO 67, intron 20 (eTeAeAe[5mC]eTeAeGeTe[5mC]eGe[5mC]eAeAeAe[5mC]eAeGeTeAe[5mC]; splice-switching) | 81 | – | – |
| ISIS 414150: uniform 2′-MOE 15-mer, phosphate backbone; ATGAACAACTTCTAA, SEQ ID NO 29, exon 20 (eAeTeGeAeAe[5mC]eAeAe[5mC]eTeTe[5mC]eTeAeA; splice-switching) | – | 5 | – |
| ISIS 414164: uniform 2′-MOE 15-mer, phosphate backbone; AGCTAACTAGTCGCA, SEQ ID NO 43, intron 20 (eAeGe[5mC]eTeAeAe[5mC]eTeAeGeTe[5mC]eGe[5mC]eA; splice-switching) | 74 | 78 | markedly increased inclusion of exon 20 |
| ISIS 414167: uniform 2′-MOE 15-mer, phosphate backbone; CACACATAAATCACA, SEQ ID NO 46, intron 20 (e[5mC]eAe[5mC]eAe[5mC]eAeTeAeAeAeTe[5mC]eAe[5mC]eA; splice-switching) | – | 13 | significantly decreased the levels of the included RNA isoform |
